Source: patent publication US12077503B2, “Substituted cyclic amides and their use as herbicides” (FMC CORPORATION, priority 2015, dated 2024)
Like-named read-outs stand apart in the source and are kept apart here.

What was measured:
Format in all cases: in vivo
[1] = tested on: ragweed (common ragweed, Ambrosia elatior); experiment: Test A postemergence; settings: Ambrosia artemisiifolia, post-emergence, 240 h, 125 g ai/ha, postemergence
Method in brief: (§1)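 Seeds sprayed preemergence with a directed soil spray, or plants at 2 to 10 cm height and one- to two-leaf stage sprayed postemergence, with test chemicals in a non-phytotoxic solvent mixture containing surfactant, in loam soil–sand blend. Injury rated visually against untreated controls after about 10 d in greenhouse, 0 (no effect) to 100 (complete control).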

[2] = tested on: wheat (Triticum aestivum); experiment: Test A postemergence; settings: Triticum aestivum, post-emergence, 240 h, 125 g ai/ha, postemergence
Method in brief: as §1

[3] = tested on: barnyardgrass (Echinochloa crus-galli); experiment: Test A postemergence; settings: Echinochloa crus-galli, post-emergence, 240 h, postemergence; for pest or weed control at 125 g/ha: 125 g ai/ha
Method in brief: as §1

[4] = tested on: Galium (catchweed bedstraw, Galium aparine); experiment: Test A postemergence; settings: Galium, post-emergence, 240 h, postemergence; for pest or weed control at 125 g/ha: 125 g ai/ha
Method in brief: as §1

corn (Zea mays) = experiment: Test A postemergence; settings: Zea mays, post-emergence, 240 h, postemergence; for plant injury at 125 g/ha: 125 g ai/ha
Method in brief: as §1

[5] = tested on: giant foxtail (Setaria faberii); experiment: Test A postemergence; settings: Setaria faberi, post-emergence, 240 h, postemergence; for pest or weed control at 125 g/ha: 125 g ai/ha
Method in brief: as §1

[6] = tested on: blackgrass (Alopecurus myosuroides); experiment: Test A postemergence; settings: Alopecurus myosuroides, post-emergence, 240 h, postemergence; for pest or weed control at 125 g/ha: 125 g ai/ha
Method in brief: as §1

[7] = tested on: ryegrass, Italian (Italian ryegrass, Lolium multiflorum); experiment: Test A postemergence; settings: Lolium multiflorum, post-emergence, 240 h, 125 g ai/ha, postemergence
Method in brief: as §1

[8] = tested on: pigweed (Amaranthus retroflexus); experiment: Test A postemergence; settings: Amaranthus retroflexus, post-emergence, 240 h, 125 g ai/ha, postemergence
Method in brief: as §1

Kochia (Kochia scoparia) = experiment: Test A postemergence; settings: Bassia scoparia, post-emergence, 240 h, 125 g ai/ha, postemergence
Method in brief: as §1

[9] = tested on: barnyardgrass (Echinochloa crus-galli); experiment: Test A preemergence; settings: Echinochloa crus-galli, pre-emergence, 240 h; for pest or weed control at 125 g/ha: 125 g ai/ha; for pest or weed control at 500 g/ha: 500 g ai/ha
Method in brief: as §1

rice (Oryra sativa) = experiment: Test B flooded paddy test; settings: Oryza sativa, 250 g ai/ha, Flood, read-out: Rice plant response rating
Method in brief: (§2)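 Evaluation by eye, against controls, occurred 13–15 d post-treatment in a greenhouse, using a 0 (no effect) to 100 (complete control) scale. Application was into the paddy water, 3 cm deep over the soil, on 2-leaf plants.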

[10] = tested on: sedge, umbrella (small-flower umbrella sedge, Cyperus difformis); experiment: Test B flooded paddy test; settings: Cyperus difformis, 250 g ai/ha, Flood, read-out: Sedge, Umbrella plant response rating
Method in brief: as §2

[11] = tested on: barnyardgrass (Echinochloa crus-galli); experiment: Test B flooded paddy test; settings: Echinochloa crus-galli, 250 g ai/ha, Flood, read-out: Barnyardgrass plant response rating
Method in brief: as §2

[12] = tested on: ducksalad (Heteranthera limosa); experiment: Test B flooded paddy test; settings: Heteranthera limosa, 250 g ai/ha, Flood, read-out: Ducksalad plant response rating
Method in brief: as §2

[13] = 0 to 100 scale where 0 is no effect and 100 is complete control
[14] = scale of 0 to 100 where 0 is no effect and 100 is complete control

Cc1cc([C@H]2CNC(=O)[C@@H]2C(=O)Nc2ccccc2S(C)(=O)=O)ccc1C(F)(F)F [Compound 1041]
pest or weed control at 125 g/ha ([1]; visual injury on 0 to 100 scale (0 no effect, 100 complete control), approx. 10 d, read-out: Ragweed plant response rating): 0%
plant injury at 125 g/ha ([2]; visual injury on 0 to 100 scale (0 no effect, 100 complete control), approx. 10 d, read-out: Wheat plant response rating): 0%
pest or weed control at 125 g/ha ([3]; visual injury on 0 to 100 scale (0 no effect, 100 complete control), approx. 10 d, read-out: Barnyardgrass plant response rating): 0%
pest or weed control at 500 g/ha ([3]; 500 g ai/ha, visual injury, 0 to 100 scale (0 no effect, 100 complete control), approx. 10 d, read-out: Plant response rating, Barnyardgrass): 50%
pest or weed control at 125 g/ha ([4]; visual injury on 0 to 100 scale (0 no effect, 100 complete control), approx. 10 d, read-out: Galium plant response rating): 40%
pest or weed control at 500 g/ha ([4]; 500 g ai/ha, visual injury, 0 to 100 scale (0 no effect, 100 complete control), approx. 10 d, read-out: Plant response rating, Galium): 60%
plant injury at 125 g/ha (corn (Zea mays); visual injury on 0 to 100 scale (0 no effect, 100 complete control), approx. 10 d, read-out: Corn plant response rating): 0%
Corn plant response rating (crop injury, 0 = no effect, 100 = complete kill) at 500 g/ha (corn (Zea mays); 500 g ai/ha, visual injury, 0 to 100 scale (0 no effect, 100 complete control), approx. 10 d): 30%
pest or weed control at 125 g/ha ([5]; visual injury on 0 to 100 scale (0 no effect, 100 complete control), approx. 10 d, read-out: Foxtail, Giant plant response rating): 0%
pest or weed control at 500 g/ha ([5]; 500 g ai/ha, visual injury, 0 to 100 scale (0 no effect, 100 complete control), approx. 10 d, read-out: Plant response rating, Foxtail, Giant): 50%
pest or weed control at 125 g/ha ([6]; visual injury on 0 to 100 scale (0 no effect, 100 complete control), approx. 10 d, read-out: Blackgrass plant response rating): 0%
pest or weed control at 500 g/ha ([6]; 500 g ai/ha, visual injury, 0 to 100 scale (0 no effect, 100 complete control), approx. 10 d, read-out: Plant response rating, Blackgrass): 40%
pest or weed control at 125 g/ha ([7]; visual injury on 0 to 100 scale (0 no effect, 100 complete control), approx. 10 d, read-out: Ryegrass, Italian plant response rating): 0%
pest or weed control at 125 g/ha ([8]; visual injury on 0 to 100 scale (0 no effect, 100 complete control), approx. 10 d, read-out: Pigweed plant response rating): 0%
pest or weed control at 125 g/ha (Kochia (Kochia scoparia); visual injury on 0 to 100 scale (0 no effect, 100 complete control), approx. 10 d, read-out: Kochia plant response rating): 0%
pest or weed control at 125 g/ha ([9]; Preemergence, visual injury rating after approximately 10 d, read-out: Barnyardgrass plant response rating (0 to 100 scale, 0 is no effect, 100 is complete control)): 30%
pest or weed control at 500 g/ha ([9]; preemergence, visual injury rating about 10 d after treatment, 0 to 100 scale (0 no effect, 100 complete control), read-out: Barnyardgrass plant response rating): 60%
pest or weed control at 250 g/ha (rice (Oryra sativa); [13]): 0%
pest or weed control at 250 g/ha [10, 13]: 0%
pest or weed control at 250 g/ha [11, 13]: 0%
pest or weed control at 250 g/ha [12, 13]: 100%

CSc1ccccc1NC(=O)[C@H]1C(=O)N(C)C[C@@H]1c1cc(F)c(F)c(F)c1 [Compound 866]
pest or weed control at 125 g/ha ([1]; visual injury rating after approximately 10 d, read-out: Ragweed plant response rating (0 to 100 scale, 0 no effect, 100 complete control)): 0%
plant injury at 125 g/ha ([2]; visual injury rating after approximately 10 d, read-out: Wheat plant response rating (0 to 100 scale, 0 no effect, 100 complete control)): 0%
pest or weed control at 125 g/ha ([3]; visual injury rating after approximately 10 d, read-out: Barnyardgrass plant response rating (0 to 100 scale, 0 no effect, 100 complete control)): 60%
pest or weed control at 125 g/ha ([4]; visual injury rating after approximately 10 d, read-out: Galium plant response rating (0 to 100 scale, 0 no effect, 100 complete control)): 20%
plant injury at 125 g/ha (corn (Zea mays); visual injury rating after approximately 10 d, read-out: Corn plant response rating (0 to 100 scale, 0 no effect, 100 complete control)): 30%
pest or weed control at 125 g/ha ([5]; visual injury rating after approximately 10 d, read-out: Foxtail, Giant plant response rating (0 to 100 scale, 0 no effect, 100 complete control)): 70%
pest or weed control at 125 g/ha ([6]; visual injury rating after approximately 10 d, read-out: Blackgrass plant response rating (0 to 100 scale, 0 no effect, 100 complete control)): 0%
pest or weed control at 125 g/ha ([7]; visual injury rating after approximately 10 d, read-out: Ryegrass, Italian plant response rating (0 to 100 scale, 0 no effect, 100 complete control)): 20%
pest or weed control at 125 g/ha ([8]; visual injury rating after approximately 10 d, read-out: Pigweed plant response rating (0 to 100 scale, 0 no effect, 100 complete control)): 0%
pest or weed control at 125 g/ha (Kochia (Kochia scoparia); visual injury rating after approximately 10 d, read-out: Kochia plant response rating (0 to 100 scale, 0 no effect, 100 complete control)): 20%
pest or weed control at 125 g/ha ([9]; preemergence, 0 to 100 scale where 0 is no effect and 100 is complete control, read-out: Barnyardgrass plant response rating): 30%
pest or weed control at 500 g/ha ([9]; Preemergence, visual injury vs untreated controls after approximately 10 d, read-out: Barnyardgrass plant response rating (0 to 100 scale where 0 is no effect and 100 is complete control)): 90%
pest or weed control at 250 g/ha (rice (Oryra sativa); [14]): 35%
pest or weed control at 250 g/ha [10, 14]: 35%
pest or weed control at 250 g/ha [11, 14]: 35%
pest or weed control at 250 g/ha [12, 14]: 90%
